These results are taken from PMC8609367 (mBio, 2021).

Data set [1] concerns A. fumigatus strains expressing McFKBP12 or McFKBP12-Y88F. As to the kind of experiment: Growth assay of A. fumigatus strains expressing FKBP12 variants in presence of FK506. It is filed as cell-based, Aspergillus fumigatus.
Method: A. fumigatus wild-type strain akuB^KU80 was used for growth and recombinant strain generation experiments. A. fumigatus wild-type or recombinant strains were cultured on glucose minimal medium (GMM) or RPMI liquid medium at 37°C for 24- or 48-h- periods. […] All growth experiments were repeated as technical triplicates, each also as biological triplicates.
The next data set has as its target T1, McFKBP12 (Mucor circinelloides, UniProt U3N5X4).
T1 sequence (U3N5X4 1-108): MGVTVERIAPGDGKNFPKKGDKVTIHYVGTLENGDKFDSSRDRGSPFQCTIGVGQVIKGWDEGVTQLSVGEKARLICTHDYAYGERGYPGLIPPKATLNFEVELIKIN
As to the kind of experiment: ITC binding to M. circinelloides FKBP12. The note with it: for Kd / Stoichiometry / TΔS / ΔG° / ΔH: ITC, 25°C, average from triplicates. As for the experimental part: (§1) The lower panel represents the integrated heat changes upon binding (kilocalories/mole) corrected for the protein and ligand heat of dilution. Fitting was performed using the MicroCal Origin software. Download FIG S2, TIF file, 0.9 MB.
(§2) After the size exclusion purification, the proteins were concentrated to ∼2 mg/ml using a 3,000-MWCO Amicon concentrator. Proteins were exhaustively dialyzed at 4°C in the isothermal titration calorimetry (ITC) buffer (50 mM sodium phosphate, 50 mM sodium chloride, pH 7.0). Experiments were performed using a VP-ITC instrument (MicroCal Inc., Northampton, MA) at 25°C. All solutions were degassed under vacuum at 25°C for 15 min immediately before use. […] was loaded into the syringe at a concentration of 25 μM and titrated in by a first injection of 2 μl followed by 22 injections of 6 μl. Following each injection, the cell was equilibrated for 3 min. […] The proteins were loaded in the cell at a concentration of 10 μM with constant stirring at 307 rpm (25°C). […] The enthalpy of binding (ΔH, kilocalories/mole) was determined by integration of the injection peaks minus the controls for the heat of dilution (equivalent experiments without the ligand and without the protein). The MicroCal Origin software (OriginLab Corp., Northampton, MA) was used for a variety of binding models.

The target of a further data set is T2, hFKBP12 (Homo sapiens, UniProt P62942).
T2 construct: His6 (thrombin-cleavable) (N, cleaved yes); made in house; host or cells: E. coli BL21(DE3)
As to the kind of experiment: ITC binding to human FKBP12. As for the experimental part: as §1, §2

A further data set concerns the target T3, AfFKBP12 (Aspergillus fumigatus, UniProt Q4WLV6).
T3 construct: His6 (thrombin-cleavable) (N, cleaved yes); made in house; host or cells: E. coli BL21(DE3)
T3 sequence (Q4WLV6 1-112): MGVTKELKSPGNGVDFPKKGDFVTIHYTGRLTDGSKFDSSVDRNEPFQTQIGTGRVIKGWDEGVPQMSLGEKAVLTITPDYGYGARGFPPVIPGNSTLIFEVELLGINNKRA
The data set is described as follows: biochemical. Format: binding. The note with it: for TΔS / ΔG° / ΔH / Stoichiometry / Kd: ITC, 25°C, average from triplicates; for Stoichiometry: ligand-FKBP12. As for the experimental part:
as §1, §2

In data set [2] the test system is T helper cell-dependent germinal center B cell response. Further details: method as in PMID 31537789. The note with it: cited from earlier work.
Another data set deals with Cryptococcus neoformans. Further details: method as in PMID 31537789. The settings on record: C. neoformans; cited from earlier work.
For data set [3], the system named is interleukin-2 (IL-2) production in primary murine CD4+ T cells. Further details: method as in PMID 31537789. The settings on record: reduction of IL-2 production in primary murine CD4+ T cells; cited from earlier work.
Data set [4] in a line: Solubility noted in ITC set-up. The settings on record: restricting the usable concentration in ITC. Format: physicochemical. As for the experimental part: as §2
Another data set relates to Candida albicans. Further details: method as in PMID 31537789. The note with it: in vitro; cited from earlier work.
Data set [5] has as its system cryptococcal model of invasive fungal infection. Further details: method as in PMID 31537789. The note with it: murine model; cited from earlier work.
On the set-up of data set [6]: method as in PMID 1380976. The settings on record: cited from earlier work.
Details of data set [7]: method as in PMID 1380976. The note with it: cited from earlier work. The source holds these as a separate data set.
The test system of another data set is FKBP12. Further details: method as in PMID 1380976. The note with it: cited from earlier work.
Where [8] appears, read: ITC, 25°C, average from triplicates.

Converted amounts (≈) assume the structure as drawn. “And” between values parts separate entries of the source, which are not always exact repeats. Equal values may be shown once.

T2 sequence (P62942 whole entry): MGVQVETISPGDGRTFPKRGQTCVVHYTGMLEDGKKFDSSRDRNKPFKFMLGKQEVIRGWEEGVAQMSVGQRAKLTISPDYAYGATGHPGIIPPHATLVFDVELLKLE

One may read the Kd as the concentration at which binding is half-saturated. Read a low Kd as higher affinity. For the compound `C=CC[C@@H]1/C=C(\C)C[C@H](C)C[C@H](OC)[C@H]2O[C@@](O)(C(=O)C(=O)N3CCCC[C@H]3C(=O)O[C@H](/C(C)=C/[C@@H]3CC[C@@H](O)[C@H](OC)C3)[C@H](C)[C@@H](O)CC1=O)[C@H](C)C[C@@H]2OC` [FK506, reference compound], the “FK506 sensitivity of A. fumigatus strain expressing McFKBP12” value in data set [1] (Affkbp12 locus replaced with Mcfkbp12, increasing concentrations of FK506) is listed as “does not restore A. fumigatus FK506 sensitivity”. In data set [1] (McFKBP12-Y88F mutant), the “FK506 sensitivity of A. fumigatus strain expressing McFKBP12-Y88F” value was “restoration of FK506 sensitivity”. Moreover, on McFKBP12, binding was characterised by a dissociation constant (Kd) of 3 ± 0.7 nM, the Stoichiometry is 1.06 ± 0.06, the TΔS is given as 1.9 ± 0.2 kcal/mol and the “ΔG°” value is -11.7 ± 0.2 kcal/mol. Also, the ΔH at McFKBP12 is -9.8 ± 0.1 kcal/mol. For the same compound, on hFKBP12 (setting [8]), the Stoichiometry stood at 1.09 ± 0.03, the TΔS is -3.3 ± 1.2 kcal/mol, the “ΔG°” value is -12.0 ± 1.6 kcal/mol and the ΔH is -15.0 ± 1.1 kcal/mol. On AfFKBP12, the TΔS was 4.6 ± 0.3 kcal/mol, the “ΔG°” value is -11.3 ± 0.4 kcal/mol, the ΔH was -6.7 ± 0.3 kcal/mol and the Stoichiometry was 2.02 ± 0.06. Besides, binding at AfFKBP12 was characterised by a dissociation constant (Kd) of 4.7 ± 0.6 nM. Further, the “Toxicity in animal models” value in data set [2] (animal models) was “acute toxicity”.

One may read the MIC as the lowest concentration found to suppress growth. On to `C=CCC1C=C(C)CC(C)CC(OC)C2OC(O)(C(=O)C(=O)N3CCCCC3C(=O)OC(C(C)=CC3CCC(O)C(OC)C3)C(C)C(O)CC1=NNC(C)=O)C(C)CC2OC` (stereo not drawn) [APX879], for which, in the data set with Cryptococcus neoformans, the “Reduction in antifungal efficacy compared to FK506” value is 17 fold. Also, the “Reduced immunosuppressive activity compared to FK506” value in data set [3] was 71 fold. Besides, the “Reduction in affinity compared to FK506” value is listed as about 40 fold on McFKBP12 (ITC KD, APX879 versus FK506); about 40 fold on hFKBP12 (ITC KD, APX879 versus FK506); 100 fold at AfFKBP12 (ITC KD, APX879 versus FK506). Moreover, the Kd on McFKBP12 is ~120 nM and 126 nM; at hFKBP12 (setting [8]), ~120 nM and 119 nM; at AfFKBP12, 462 nM. Also, the Stoichiometry on McFKBP12 came out at 0.93 ± 0.17; at hFKBP12 (setting [8]) it was 1.41 ± 0.03; on AfFKBP12 it was 1.96 ± 0.13. Further, the TΔS is listed as 7.4 ± 0.2 kcal/mol on McFKBP12, 7.4 ± 0.8 kcal/mol at hFKBP12 (setting [8]) and 7.2 ± 1.0 kcal/mol on AfFKBP12. Besides, the “ΔG°” value was -9.4 ± 0.2 kcal/mol at McFKBP12, -9.2 ± 0.9 kcal/mol on hFKBP12 (setting [8]) and -8.0 ± 1.0 kcal/mol at AfFKBP12. The ΔH is -2.0 ± 0.1 kcal/mol on McFKBP12, -1.8 ± 0.4 kcal/mol at hFKBP12 (setting [8]) and -1.2 ± 0.4 kcal/mol at AfFKBP12. For the same compound, the Solubility entry in data set [4] is “low solubility”. The “Ability to stimulate T helper cell-dependent germinal center B cell response” value in [2] (in comparison to FK506 treatment, animal models) is on record as “significant reduction”. The “Immunosuppressive activity in vivo” value in data set [2] (murine model) is “reduced immunosuppressive activity”. For the same compound, the MIC in the data set with Candida albicans is 8 µg/mL (≈ 9.3 µM). In [5], the “Efficacy in cryptococcal model” value is given as “confirmed efficacy”.

As for `CC[C@@H]1/C=C(\C)[C@@H](O)[C@H](C)C[C@H](OC)[C@H]2O[C@@](O)(C(=O)C(=O)N3CCCC[C@H]3C(=O)O[C@H](/C(C)=C/[C@@H]3CC[C@@H](O)[C@H](OC)C3)[C@H](C)[C@@H](O)CC1=O)[C@H](C)C[C@@H]2OC` [L-685,818], the Antifungal activity entry in [6] was “retains antifungal activity”. In [7], the Immunosuppressive activity entry is given as “nonimmunosuppressive”. The “Binding to FKBP12” value with FKBP12 is reported as “still binds to FKBP12”.
